The values that follow come from patent publication US20050159345A1 (Boehringer Ingelheim International GmbH, priority 2002, published 2005).

The test system of test [1] is HCV replicon 1b. Nature of the test: Cell-based HCV 1b RNA replicon assay. Conditions: Hepatitis C virus, 72 h; Huh-7-derived replicon cells, 3 day incubation, HCV RNA by RT-PCR. The method, then: (§1) These cells were used to establish a sensitive HCV RNA replication cell-based assay for testing candidate test compounds.
(§2) Huh7 cells that stably maintain a subgenomic HCV replicon were established as previously described (Lohman et al. 1999; WO 02/052015). The cells were seeded into a 96 well cell culture cluster at 1×10^4 cells per well in DMEM complemented with 10% FBS, PenStrep (Life Technologies) and […] Geneticin. Cells were incubated in a 5% CO2 incubator at 37° C. until addition of various concentrations of the test compound.
(§3) The test compound was prepared for use in the assay as follows. The test compound in 100% DMSO was added diluted in assay Medium for a final DMSO concentration of 0.5% and the solution was sonicated for 15 min and filtered through a […] Millipore Filter Unit. Serial dilutions of the test compounds were prepared using Assay Medium (containing 0.5% DMSO).
(§4) Cell culture medium was aspirated from the 96-well plate containing the cells and the appropriate dilution of test compound in assay medium was transferred to independent wells of the cell culture plate which was incubated at 37° with 5% CO2.
(§5) Following a 3 day-incubation period, the cells were washed with PBS and total cellular RNA was extracted with the RNeasy Mini Kit® and Qiashredder® from Qiagen. RNA from each well was eluted in 50 μL of H2O. RNA was quantified by optical density at 260 nm on the Cary 1E® UV-Visible spectrophotometer. The HCV RNA replicon copy number was evaluated by real-time RT-PCR with the Abi Prism® 7700 Sequence Detection System. The TAQMAN E® RT-PCR kit provides a system for the detection and analysis of RNA. Direct detection of the reverse transcription polymerase chain reaction (RT-PCR) product with no downstream processing was accomplished by monitoring the increase in fluorescence of a dye-labeled DNA probe. The nucleotide sequence of both primers and probe was located in the 5′ region of the HCV genome. The replicon copy number was then evaluated using a standard curve made with known amounts of replicon copy (supplemented with 50 ng of wild type Huh-7 RNA) assayed in the same reaction mix. The following thermal cycle parameters were used for the RT-PCR reaction on the ABI Prism® 7700 Sequence Detection System. Conditions were optimized for HCV detection. Quantification is based on the threshold cycle, where the amplification plot crosses a defined fluorescence threshold. Comparison of the threshold cycles provides a highly sensitive measure of relative template concentration in different samples. Monitoring during early cycles, when PCR fidelity is at its highest, provides precise data for accurate quantification. The relative template concentration can be converted to real numbers by using the standard curve of HCV with known number of copy.
(§6) The level of inhibition (% inhibition) of each well containing test compound was calculated with the following equation (CN═HCV Replicon copy number): [formula]
(§7) The calculated % inhibition values were then used to determine EC50, slope factor (n) and maximum inhibition (Imax) by the non-linear regression routine NLIN procedure of SAS using the following equation: [formula]
On the technique in general: A replicon is a self-replicating genome or part of one, used to study replication in cells.

Test [2] has as its system HCV replicon 1a. Nature of the test: Cell-based HCV 1a RNA replicon assay. Conditions: Hepatitis C virus, 72 h; Huh-7-derived replicon cells, 3 day incubation, HCV RNA by RT-PCR. Here is the method: as §1, §2, §3, §4, §5, §6, §7

By EC50 is commonly meant the concentration giving half of the maximal effect. Read a high EC50 as a need for much substance.

Molecules are shown by their SMILES.

In the case of `COc1ccc2c(O[C@@H]3C[C@H]4C(=O)N[C@]5(C(=O)NS(=O)(=O)C6CC6)CC5/C=C\CCCCC[C@H](NC(=O)OC5CCCC5)C(=O)N4C3)cc(-c3csc(NC(C)C)n3)nc2c1` (stereo partly drawn), the values for the EC50 in test [1] and in test [2] were 1.1 nM and 0.7 nM, respectively.

For `COc1ccc2c(O[C@@H]3C[C@H]4C(=O)N[C@]5(C(=O)NS(=O)(=O)c6ccccc6)CC5/C=C\CCCCC[C@H](NC(=O)OC5CCCC5)C(=O)N4C3)cc(-c3csc(NC(C)C)n3)nc2c1` (stereo partly drawn) [VI], the EC50 in test [1] came out at 3 nM; in test [2], 2.2 nM.

`COc1ccc2c(O[C@@H]3C[C@H]4C(=O)N[C@]5(C(=O)NS(C)(=O)=O)CC5/C=C\CCCCC[C@H](NC(=O)OC5CCCC5)C(=O)N4C3)cc(-c3csc(NC(C)C)n3)nc2c1` (stereo partly drawn) [VII]: the figures for the half-maximal effective concentration (EC50) in test [1] and in test [2] were 3.3 nM and 3.2 nM, respectively.
